Patent publication US8846933B2, “N-link hydroxamic acid derivatives useful as antibacterial agents” (Pfizer Inc., priority 2009, dated 2014)

Assays:
Format in all cases: cell-based
[1] = test system: Escherichia coli EC-1: VOGEL, mouse virulent; assay: MIC determination (CLSI), strain EC-1; conditions: Escherichia coli EC-1, VOGEL, mouse virulent; unit assumed
In short: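 The mouse-virulent VOGEL isolate of E. coli, EC-1, served as test organism. Minimum inhibitory concentration was measured by CLSI dilution methodology (M7-A7; M100-S18 standards).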

[2] = test system: Pseudomonas aeruginosa UI-18: Wild-type (PA-7); assay: MIC determination (CLSI), strain PA-7; conditions: Pseudomonas aeruginosa UI-18, wild-type; unit assumed
In short: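 MIC determined by broth dilution per CLSI M7-A7 guidelines with M100-S18 interpretive standards. Test organism: wild-type Pseudomonas aeruginosa UI-18, designated PA-7.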

[3] = test system: Acinetobacter baumanii/haemolyticus: Multidrug-resistant clinical isolate (AB-3167); assay: MIC determination (CLSI), strain AB-3167; conditions: unit assumed
Experimental: The in vitro antibacterial activity of compounds described in the Examples was evaluated by minimum inhibitory concentration (MIC) testing according to Clinical and Laboratory Standards Institute (CLSI, formerly NCCLS) guidelines. See: Clinical and Laboratory Standards Institute. Methods for Dilution Antimicrobial Susceptibility Tests for Bacteria that Grow Aerobically; Approved Standard-Seventh Edition. CLSI document M7-A7 [ISBN 1-56238-587-9]. Clinical and Laboratory Standards Institute, 940 West Valley Road, Suite 1400, Wayne, Pa. 19087-1898 USA, 2006; also Clinical and Laboratory Standards Institute. Performance Standards for Antimicrobial Susceptibility Testing; Eighteenth Informational Supplement. CLSI document M100-S18 [ISBN1-56238-653-0].Clinical and Laboratory Standards Institute.
The following bacterial strains were used in these MIC determinations:
2) Acinetobacter baumanii/haemolyticus: Multidrug-resistant clinical isolate labeled as AB-3167 in Tables 4 and 5;

Q: How did the EC-1 (MIC) [1] turn out when C[C@@](CCn1ccc(-c2ccc(Cl)cc2F)cc1=O)(C(=O)NO)S(C)(=O)=O [Example 20, (2R)-4-[4-(4-chloro-2-fluorophenyl)-2-oxopyridin-1(2H)-yl]-N-hydroxy-2-methyl-2-(methylsulfonyl)butanamide] was run?
A: 0.25 µg/mL

Q: What about the PA-7 (MIC) [2] of the same molecule?
A: 0.25 µg/mL

Q: What about the AB-3167 (MIC) [3] of the same molecule?
A: > 64 µg/mL

Q: Which results are given for COc1ccc(-c2ccn(CC[C@](C)(C(=O)NO)S(C)(=O)=O)c(=O)c2)c(F)c1 [Example 21, (2R)-4-[4-(2-fluoro-4-methoxyphenyl)-2-oxopyridin-1(2H)-yl]-N-hydroxy-2-methyl-2-(methylsulfonyl)butanamide]?
A: EC-1 (MIC) [1]: 0.125 µg/mL; PA-7 (MIC) [2]: 0.25 µg/mL; AB-3167 (MIC) [3]: 32 µg/mL

Q: C[C@@](CCn1ccc(-c2c(F)ccc(F)c2F)cc1=O)(C(=O)NO)S(C)(=O)=O [Example 22, (2R)-N-hydroxy-2-methyl-2-(methylsulfonyl)-4-[2-oxo-4-(2,3,6-trifluorophenyl)pyridin-1(2H)-yl]butanamide] was tested. Which EC-1 (MIC) [1] did it give?
A: 2 µg/mL

Q: What about the PA-7 (MIC) [2] of the same molecule?
A: 4 µg/mL

Q: What about the AB-3167 (MIC) [3] of the same molecule?
A: > 64 µg/mL

Q: Cc1nccc(-c2ccc(-c3ccn(CC[C@](C)(C(=O)NO)S(C)(=O)=O)c(=O)c3)cc2)n1 [Example 23, (2R)-N-hydroxy-2-methyl-4-{4-[4-(2-methylpyrimidin-4-yl)phenyl]-2-oxopyridin-1(2H)-yl}-2-(methylsulfonyl)butanamide] was tested. Which EC-1 (MIC) [1] did it give?
A: 2 µg/mL

Q: What about the PA-7 (MIC) [2] of the same molecule?
A: 2 µg/mL

Q: What about the AB-3167 (MIC) [3] of the same molecule?
A: > 64 µg/mL

Q: For Cn1nccc1-c1ccc(-c2ccn(CC[C@](C)(C(=O)NO)S(C)(=O)=O)c(=O)c2)cc1 [Example 24, (2R)-N-hydroxy-2-methyl-4-{4-[4-(1-methyl-1H-pyrazol-5-yl)phenyl]-2-oxopyridin-1(2H)-yl}-2-(methylsulfonyl)butanamide], which EC-1 (MIC) [1] is on record?
A: 1 µg/mL

Q: And the PA-7 (MIC) [2]?
A: 2 µg/mL

Q: What about the AB-3167 (MIC) [3] of the same molecule?
A: > 64 µg/mL

Q: How did the EC-1 (MIC) [1] turn out when Cc1nc(-c2ccc(-c3ccn(CC[C@](C)(C(=O)NO)S(C)(=O)=O)c(=O)c3)cc2)co1 [Example 25, (2R)-N-hydroxy-2-methyl-4-{4-[4-(2-methyl-1,3-oxazol-4-yl)phenyl]-2-oxopyridin-1(2H)-yl}-2-(methylsulfonyl)butanamide] was run?
A: 1 µg/mL

Q: And the PA-7 (MIC) [2]?
A: 2 µg/mL

Q: What about the AB-3167 (MIC) [3] of the same molecule?
A: > 64 µg/mL

Q: Cc1ncc(-c2ccc(-c3ccn(CC[C@](C)(C(=O)NO)S(C)(=O)=O)c(=O)c3)cc2)cn1 [Example 27, (2R)-N-hydroxy-2-methyl-4-{4-[4-(2-methylpyrimidin-5-yl)phenyl]-2-oxopyridin-1(2H)-yl}-2-(methylsulfonyl)butanamide] was tested. Which EC-1 (MIC) [1] did it give?
A: 16 µg/mL

Q: And the PA-7 (MIC) [2]?
A: 4 µg/mL

Q: What about the AB-3167 (MIC) [3] of the same molecule?
A: > 64 µg/mL

Q: Which EC-1 (MIC) [1] does the source give for C[C@@](CCn1ccc(-c2ccc(OC(F)F)cc2F)cc1=O)(C(=O)NO)S(C)(=O)=O [Example 28, (2R)-4-{4-[4-(difluoromethoxy)-2-fluorophenyl]-2-oxopyridin-1(2H)-yl}-N-hydroxy-2-methyl-2-(methylsulfonyl)butanamide] here?
A: 0.25 µg/mL

Q: And the PA-7 (MIC) [2]?
A: 0.5 µg/mL

Q: And the AB-3167 (MIC) [3]?
A: > 64 µg/mL

Q: Which EC-1 (MIC) [1] does the source give for CC(CCn1ccc(-c2ccc(Oc3ccccn3)cc2)cc1=O)(C(=O)NO)S(C)(=O)=O (stereo not drawn) [Example 29, N-Hydroxy-2-methyl-2-(methylsulfonyl)-4-{2-oxo-4-[4-(pyridin-2-yloxy)phenyl]pyridin-1(2H)-yl}butanamide] here?
A: 0.5 µg/mL

Q: What about the PA-7 (MIC) [2] of the same molecule?
A: 4 µg/mL

Q: And the AB-3167 (MIC) [3]?
A: > 64 µg/mL

Q: With CC(CCn1ccc(-c2ccc(OCCCO)cc2)cc1=O)(C(=O)NO)S(C)(=O)=O (stereo not drawn) [Example 30, N-hydroxy-4-{4-[4-(3-hydroxypropoxy)phenyl]-2-oxopyridin-1(2H)-yl}-2-methyl-2-(methylsulfonyl)butanamide] as the molecule, how does the EC-1 (MIC) [1] read?
A: 2 µg/mL

Q: What about the PA-7 (MIC) [2] of the same molecule?
A: 4 µg/mL

Q: What about the AB-3167 (MIC) [3] of the same molecule?
A: > 64 µg/mL

Q: For CC(CCn1ccc(-c2ccc(CCCO)cc2)cc1=O)(C(=O)NO)S(C)(=O)=O (stereo not drawn) [Example 31, N-Hydroxy-4-{4-[4-(3-hydroxypropyl)phenyl]-2-oxopyridin-1(2H)-yl}-2-methyl-2-(methylsulfonyl)butanamide], which EC-1 (MIC) [1] is on record?
A: 8 µg/mL

Q: And the PA-7 (MIC) [2]?
A: 4 µg/mL

Q: And the AB-3167 (MIC) [3]?
A: > 64 µg/mL

Q: Which results are given for C[C@@](CCn1ccc(-c2ccc(OCCC3CC(O)C3)cc2)cc1=O)(C(=O)NO)S(C)(=O)=O (stereo partly drawn) [Example 32, (2R)-N-hydroxy-4-[4-{4-[2-(3-hydroxycyclobutyl)ethoxy]phenyl}-2-oxopyridin-1(2H)-yl]-2-methyl-2-(methylsulfonyl)butanamide]?
A: EC-1 (MIC) [1]: 0.25 µg/mL; PA-7 (MIC) [2]: 1 µg/mL; AB-3167 (MIC) [3]: > 64 µg/mL

Q: How did the EC-1 (MIC) [1] turn out when CC(CCn1ccc(-c2ccc3cccnc3c2)cc1=O)(C(=O)NO)S(C)(=O)=O (stereo not drawn) [Example 36, N-hydroxy-2-methyl-2-(methylsulfonyl)-4-(2-oxo-4-quinolin-7-ylpyridin-1(2H)-yl)butanamide] was run?
A: 4 µg/mL

Q: What about the PA-7 (MIC) [2] of the same molecule?
A: 8 µg/mL

Q: What about the AB-3167 (MIC) [3] of the same molecule?
A: > 64 µg/mL

Q: With CC(CCn1ccc(-c2ccc(OCCc3ccncc3)cc2)cc1=O)(C(=O)NO)S(C)(=O)=O (stereo not drawn) [Example 37, N-hydroxy-2-methyl-2-(methylsulfonyl)-4-{2-oxo-4-[4-(2-pyridin-4-ylethoxy)phenyl]pyridin-1(2H)-yl}butanamide] as the molecule, how does the EC-1 (MIC) [1] read?
A: 0.5 µg/mL

Q: What about the PA-7 (MIC) [2] of the same molecule?
A: 4 µg/mL

Q: And the AB-3167 (MIC) [3]?
A: > 64 µg/mL

Q: Which EC-1 (MIC) [1] does the source give for Cc1cnc(-c2ccc(-c3ccn(CC[C@](C)(C(=O)NO)S(C)(=O)=O)c(=O)c3)cc2)o1 [Example 38, (2R)-N-hydroxy-2-methyl-4-{4-[4-(5-methyl-1,3-oxazol-2-yl)phenyl]-2-oxopyridin-1(2H)-yl}-2-(methylsulfonyl)butanamide] here?
A: 0.06 µg/mL

Q: And the PA-7 (MIC) [2]?
A: 0.5 µg/mL

Q: What about the AB-3167 (MIC) [3] of the same molecule?
A: > 64 µg/mL

Q: C[C@@](CCn1ccc(-c2ccc(-c3ncccn3)cc2)cc1=O)(C(=O)NO)S(C)(=O)=O [Example 39, (2R)-N-hydroxy-2-methyl-2-(methylsulfonyl)-4-[2-oxo-4-(4-pyrimidin-2-ylphenyl)pyridin-1(2H)-yl]butanamide] was tested. Which EC-1 (MIC) [1] did it give?
A: 0.5 µg/mL

Q: And the PA-7 (MIC) [2]?
A: 2 µg/mL

Q: What about the AB-3167 (MIC) [3] of the same molecule?
A: > 64 µg/mL

Q: For C[C@@](CCn1ccc(-c2ccc(-n3nccn3)cc2)cc1=O)(C(=O)NO)S(C)(=O)=O [Example 40, (2R)-N-hydroxy-2-methyl-2-(methylsulfonyl)-4-{2-oxo-4-[4-(2H-1,2,3-triazol-2-yl)phenyl]pyridin-1(2H)-yl}butanamide], which EC-1 (MIC) [1] is on record?
A: 0.03 µg/mL

Q: And the PA-7 (MIC) [2]?
A: 0.25 µg/mL

Q: What about the AB-3167 (MIC) [3] of the same molecule?
A: > 64 µg/mL

Q: Which EC-1 (MIC) [1] does the source give for C[C@@](CCn1ccc(-c2ccc(F)cc2)cc1=O)(C(=O)NO)S(C)(=O)=O [Example 41, (2R)-4-[4-(4-fluorophenyl)-2-oxopyridin-1(2H)-yl]-N-hydroxy-2-methyl-2-(methylsulfonyl)butanamide] here?
A: 1 µg/mL

Q: And the PA-7 (MIC) [2]?
A: 0.5 µg/mL

Q: What about the AB-3167 (MIC) [3] of the same molecule?
A: > 64 µg/mL

Q: Which results are given for C[C@@](CCn1ccc(-c2cccc(F)c2)cc1=O)(C(=O)NO)S(C)(=O)=O [Example 42, (2R)-4-[4-(3-fluorophenyl)-2-oxopyridin-1(2H)-yl]-N-hydroxy-2-methyl-2-(methylsulfonyl)butanamide]?
A: EC-1 (MIC) [1]: 2 µg/mL; PA-7 (MIC) [2]: 1 µg/mL; AB-3167 (MIC) [3]: > 64 µg/mL

Q: With C[C@@](CCn1ccc(-c2ccccc2F)cc1=O)(C(=O)NO)S(C)(=O)=O [Example 43, (2R)-4-[4-(2-fluorophenyl)-2-oxopyridin-1(2H)-yl]-N-hydroxy-2-methyl-2-(methylsulfonyl)butanamide] as the molecule, how does the EC-1 (MIC) [1] read?
A: 1 µg/mL

Q: And the PA-7 (MIC) [2]?
A: 0.5 µg/mL

Q: And the AB-3167 (MIC) [3]?
A: > 64 µg/mL
